Tests used:
[1] = target: T1, human A1 adenosine receptor (hA1) (Homo sapiens, UniProt P30542); experiment: Binding affinity for human A1 adenosine receptor expressed in CHO cells ([3H]CCPA); details: 10 μM (table footnote); read-out: percentage inhibition of specific binding, hA1
T1 construct: expressed in transfected cells; host or cells: CHO cells (ATCC No. CCL-61)
T1 sequence (P30542 1-326): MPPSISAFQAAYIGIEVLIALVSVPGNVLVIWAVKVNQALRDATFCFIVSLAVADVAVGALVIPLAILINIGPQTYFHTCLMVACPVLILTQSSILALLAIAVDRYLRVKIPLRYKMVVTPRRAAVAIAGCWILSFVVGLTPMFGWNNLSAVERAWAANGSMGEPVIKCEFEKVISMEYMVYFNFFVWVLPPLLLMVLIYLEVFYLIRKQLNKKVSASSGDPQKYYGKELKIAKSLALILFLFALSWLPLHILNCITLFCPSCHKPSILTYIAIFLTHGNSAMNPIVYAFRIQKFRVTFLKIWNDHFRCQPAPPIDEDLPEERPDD

[2] = target: T2, human A2A adenosine receptor (hA2A) (Homo sapiens, UniProt P29274); experiment: Binding affinity for A2A adenosine receptor expressed on HEK 293 cell ([3H]CGS-21680); details: 10 μM (table footnote); read-out: percentage inhibition of specific binding, hA2A
T2 construct: expressed in transfected cells; host or cells: HEK 293 cells

[3] = test system: TPA-induced inflammation of the mouse ear; experiment: Anti-inflammatory activity, TPA-treated mouse ear; assay type: in vivo, ICR mice; details: for anti-inflammatory activity relative to Examples 2 to 4: 0.5% in acetone, on the basis of inhibition percentage; for percentage of inflammation inhibition: topical, mouse ear
Method: The adenosine derivatives of the present invention were examined for anti-inflammatory activity in the following animal test. Seven-week-old male ICR mice were treated with TPA (12-O-tetradecanoylphorbol-13-acetate, 20 μl) in the right ear. […] Hydrocortisone was used at the same concentration as a control.
6 hrs after treatment with TPA, the mice were secondarily treated with the adenosine derivatives of the present invention. 24 hrs after TPA treatment, test animals were euthanized using a cervical dislocation method. Samples were obtained from the right ear using a 6 mm diameter punch. The activity was observed by measuring the ear sample using a microbalance. Percentages of inhibition were calculated using the following Equation 1. The compositions and amounts used in these experiments are summarized in Tables 2 to 5 and the anti-inflammatory activities thereof are shown in FIGS. 2 to 5.

[4] = target: T3, human A3 adenosine receptor (hA3 AR) (Homo sapiens, UniProt P0DMS8); experiment: Binding affinity for human A3 adenosine receptor expressed in CHO cells ([125I]AB-MECA); details: for Ki: ± SEM, [125I]AB-MECA, CHO cells
T3 construct: expressed in transfected cells; host or cells: CHO cells (ATCC No. CCL-61)
T3 sequence (P0DMS8 1-318): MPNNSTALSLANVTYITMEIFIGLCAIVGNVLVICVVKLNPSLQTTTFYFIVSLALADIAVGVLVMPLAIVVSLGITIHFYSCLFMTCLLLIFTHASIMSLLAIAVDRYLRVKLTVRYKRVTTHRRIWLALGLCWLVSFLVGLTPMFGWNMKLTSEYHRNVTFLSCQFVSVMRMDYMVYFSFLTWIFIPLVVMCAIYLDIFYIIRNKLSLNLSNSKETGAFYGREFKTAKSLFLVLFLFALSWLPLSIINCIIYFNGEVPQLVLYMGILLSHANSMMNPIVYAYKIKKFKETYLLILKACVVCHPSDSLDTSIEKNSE

[5] = test system: NASH- or NAFLD-induced mice; experiment: Efficacy test on NASH or NAFLD and liver fibrosis in NASH- or NAFLD-induced mice; assay type: in vivo; details: oral once a day, 6 to 10 weeks of age; vs negative control; HE staining
Method: As a comparison group, eight normal mice were given no treatment until 10 weeks of age. As a positive control group, eight NASH- or NAFLD-induced mice were orally administered with 10 mg/kg of telmisartan (i.e., a hypertension medication) once a day for six to 10 weeks of age. As a negative control group, eight NASH- or NAFLD-induced mice were orally administered with only 10 mL/kg of 0.5% methyl cellulose (i.e., a vehicle) once a day for 6 to 10 weeks of age.
Then, for the livers of the experimental animals at 10 weeks of age, the degree of steatosis, inflammation and ballooning were measured using HE staining, and the area of fibrosis was observed and measured using Sirius red staining.

[6] = target: T4, human A2B adenosine receptor (Homo sapiens, UniProt P29275); experiment: Agonist or antagonist activity on human A2B adenosine receptor; assay type: biochemical
T4 sequence (P29275 1-332): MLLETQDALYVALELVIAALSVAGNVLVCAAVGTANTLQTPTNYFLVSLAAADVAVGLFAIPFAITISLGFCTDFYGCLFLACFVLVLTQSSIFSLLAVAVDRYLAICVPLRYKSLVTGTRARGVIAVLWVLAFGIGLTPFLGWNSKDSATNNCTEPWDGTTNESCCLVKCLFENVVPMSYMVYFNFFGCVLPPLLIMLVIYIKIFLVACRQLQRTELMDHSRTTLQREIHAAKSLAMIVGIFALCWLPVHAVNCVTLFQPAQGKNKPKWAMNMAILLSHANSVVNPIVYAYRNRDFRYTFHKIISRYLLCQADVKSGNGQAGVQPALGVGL

[7] = target: T5, human A3 adenosine receptor (Homo sapiens, UniProt P0DMS8); experiment: Antagonism of Cl-IB-MECA and cAMP inhibition in CHO cells expressing human A3 adenosine receptor; assay type: cell-based; details: CHO cells expressing hA3 AR, various concentrations
T5 construct: expressed in transfected cells; host or cells: CHO cells
T5 sequence (P0DMS8 1-318): T3 sequence (P0DMS8 1-318)

[8] = 0.5% in distilled water:acetone (1:4)

T2 sequence (P29274 whole entry): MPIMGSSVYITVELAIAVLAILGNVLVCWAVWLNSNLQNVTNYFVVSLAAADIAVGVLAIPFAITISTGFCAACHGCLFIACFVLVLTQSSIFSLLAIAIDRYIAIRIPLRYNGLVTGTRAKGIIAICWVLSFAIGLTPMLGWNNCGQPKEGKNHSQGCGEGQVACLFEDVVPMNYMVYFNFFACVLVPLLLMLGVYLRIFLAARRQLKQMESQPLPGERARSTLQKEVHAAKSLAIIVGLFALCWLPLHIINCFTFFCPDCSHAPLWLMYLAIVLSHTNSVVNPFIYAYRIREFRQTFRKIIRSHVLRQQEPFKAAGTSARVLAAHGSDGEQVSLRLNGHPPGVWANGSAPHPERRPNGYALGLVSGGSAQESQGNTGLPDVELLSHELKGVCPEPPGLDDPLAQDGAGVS

Row | SMILES | inhibition at 10 µM [1] [%] | inhibition [2] [%] | melting point | also measured
1 | O[C@@H]1[C@H](O)CS[C@H]1n1cnc2c(NCc3cccc(F)c3)nc(Cl)nc21 [Example 1, (2R,3R,4S)-2-(2-Chloro-6-(3-fluorobenzylamino)-9H-purin-9-yl)tetrahydrothiophen-3,4-diol] | 19.8 | 47.6 | 183.2 to 183.5 °C | anti-inflammatory activity relative to Examples 2 to 4 [3]: four or more times that of the compounds of Examples 2 to 4
2 | COc1ccccc1CNc1nc(Cl)nc2c1ncn2[C@@H]1SC[C@@H](O)[C@H]1O [Example 7, (2R,3R,4S)-2-(2-chloro-6-(2-methoxybenzylamino)-9H-purin-9-yl)tetrahydrothiophen-3,4-diol] | 9.4 | 17.5 | 188 °C | –
3 | CNc1nc(Cl)nc2c1ncn2[C@@H]1SC[C@H](O)[C@@H]1O [Example 10, 2-(2-Chloro-6-methylamino-purin-9-yl)(2R,3 S,4R)-tetrahydrothiophen-3,4-diol] | 55.4 ± 1.8 | 45 ± 1.4 | – | Ki [4]: 3.69 ± 0.25 nM
4 | O[C@@H]1[C@H](O)CS[C@H]1n1cnc2c(NCc3ccccc3Cl)nc(Cl)nc21 [Example 5, (2R,3R,4S)-2-(2-Chloro-6-(2-chlorobenzylamino)-9H-purin-9-yl)tetrahydrothiophen-3,4-diol] | – | – | 198.7 to 199.7 °C | inhibition [1]: 12.8%; percentage of inflammation inhibition [3, 8]: 17%
5 | CCCc1nc2c(C)cc(-c3nc4ccccc4n3C)cc2n1Cc1ccc(-c2ccccc2C(=O)O)cc1 [telmisartan] | – | – | – | steatosis score of the liver [5]: no significant decrease in steatosis was observed
6 | O=C(O)c1cccc(CNc2nc(Cl)nc3c2ncn3[C@@H]2SC[C@@H](O)[C@H]2O)c1 [Example 9, 3-((2-chloro-9-((2R,3R,4S)-3,4-dihydroxytetrahydrothiophen-2-yl)-9H-purine-6-ylamino)methyl)benzoic acid] | 13.1 | -0.18 | 254 to 256.9 °C | inhibition at 10 µM ([4]; 10 μM (table footnote), read-out: percentage inhibition of specific binding, hA3): 41.5%
7 | O[C@@H]1[C@H](O)CS[C@H]1n1cnc2c(NCc3cccc(Br)c3)nc(Cl)nc21 [Example 3, (2R,3R,4S)-2-(2-Chloro-6-(3-bromobenzylamino)-9H-purin-9-yl)tetrahydrothiophen-3,4-diol] | 34.2 | 18.4 | 184 to 185 °C | –
8 | O[C@@H]1[C@H](O)CS[C@H]1n1cnc2c(NCc3cccc4ccccc34)nc(Cl)nc21 [Example 8, (2R,3R,4S)-2-(2-Chloro-6-(naphthalen-1-ylmethylamino)-9H-purin-9-yl)tetrahydrothiophen-3,4-diol] | 22 | -8.3 | 226.3 °C (dec.) | percentage of inflammation inhibition [3, 8]: 53%
9 | O[C@@H]1[C@H](O)CS[C@H]1n1cnc2c(NCc3cccc(I)c3)nc(Cl)nc21 [Example 4, (2R,3R,4S)-2-(2-Chloro-6-(3-iodobenzylamino)-9H-purin-9-yl)tetrahydrothiophen-3,4-diol] | – | – | – | agonist or antagonist on human A2B adenosine receptor [6]: not observed as an agonist or antagonist; inhibition of the agonist effect of Cl-IB-MECA [7]: inhibited in a dose-dependent manner
10 | COc1ccc(Cl)cc1CNc1nc(Cl)nc2c1ncn2[C@@H]1SC[C@@H](O)[C@H]1O [Example 6, (2R,3R,4S)-2-(2-Chloro-6-(5-chloro-2-methoxybenzylamino)-9H-purin-9-yl)tetrahydrothiophen-3,4-diol] | 23.8 | – | 188.8 to 189.8 °C | anti-inflammatory activity relative to Examples 2 to 4 [3]: four or more times that of the compounds of Examples 2 to 4

Further lines, with some results ahead:

Row | inhibition at 10 µM [1] [%] | inhibition [2] [%] | melting point | SMILES | also measured
11 | 39.8 | 22.8 | 181.5 to 181.7 °C | O[C@@H]1[C@H](O)CO[C@H]1n1cnc2c(NCc3cccc(Br)c3)nc(Cl)nc21 [Example 15, (2R,3R,4R)-2-(6-(3-bromobenzylamino)-2-chloro-9H-purin-9-yl)tetrahydrofuran-3,4-diol] | percentage of inflammation inhibition ([3]; 0.5% in DMSO:acetone (1:9)): 59%
12 | – | – | 198.8 to 199.8 °C | O[C@@H]1[C@H](O)CS[C@H]1n1cnc2c(NCc3cccc(I)c3)ncnc21 [Example 14, (2R,3R,4S)-2-(6-(3-Iodobenzylamino)-9H-purin-9-yl)tetrahydrothiophen-3,4-diol] | –
13 | – | – | 183 to 184 °C | O[C@@H]1[C@H](O)CS[C@H]1n1cnc2c(NCc3cccc(Br)c3)ncnc21 [Example 13, (2R,3R,4S)-2-(6-(3-bromobenzylamino)-9H-purin-9-yl)tetrahydrothiophen-3,4-diol] | –
14 | 37.7 | 28.6 | 195.5 to 195.8 °C | OC1CO[C@@H](n2cnc3c(NCc4cccc(I)c4)nc(Cl)nc32)C1O (stereo partly drawn) [Example 16, (2R,3R,4R)-2-(6-(3-iodobenzylamino)-2-chloro-9H-purin-9-yl)tetrahydrofuro-3,4-diol] | Ki [4]: 42.9 ± 8.9 nM; percentage of inflammation inhibition ([3]; 0.5% in DMSO:acetone (1:9)): 79%
